Reference: patent publication US10245299B2, “Autoassembling peptides for the treatment of pulmonary bulla” (3-D MATRIX, LTD., priority 2014, dated 2019)

System: pulmonary bullae
Experiment: Burst pressure of hydrogels as air sealants on collapsed pulmonary bullae of swine lungs
From the text: Swine lungs were obtained from freshly euthanized pigs. An endotracheal tube was inserted through the trachea and primary bronchus into the lung of interest. Pressure was supplied to the lungs with the use of a manual endotracheal intubation pump. The trachea was tied off to prevent air leakage around the tube. The other primary bronchus of the other lung was clamped to direct all airflow to the lung of interest. A manometer was used to measure the pressure of air directed into the lungs to induce expansion.
The self-assembling peptide hydrogels were comprised of Ac-RADARADARADARADA-NH2 (SEQ ID NO: 1) (i.e. RADA16) and Ac-IEIKIEIKIEIKI-NH2 (SEQ ID NO: 2) (i.e. IEIK13) with RADA16 used alone or mixed with calcium chloride. If alone, the peptides were reconstituted in deionized water. If, however the peptides were reconstituted with a salt solution, the peptides were reconstituted first in deionized water, and subsequently, a 2× solution of calcium chloride at a previously decided concentration which was mixed in at a 1:1 ratio.
Pulmonary bullae, as depicted in FIG. 25, are naturally occurring weak areas of the pleura. Prior to application of the hydrogels, the bullae were identified and collapsed using a 16 G needle. […]

## Arg-Ala-Asp-Ala-Arg-Ala-Asp-Ala-Arg-Ala-Asp-Ala-Arg-Ala-Asp-Ala [PuraMatrix®]
2.5% RADA16 mixed with 0.250 M CaCl2
  burst pressure compared among formulations: best burst pressure
2.5% RADA16 with CaCl2
  filling of collapsed bullae cavity, histological analysis: entirely filled the pulmonary bullae cavity
